Laboratory results as given in ChEMBL document CHEMBL1142505, “Synthesis and antitubercular activity of ferrocenyl diaminoalcohols and diamines” (2008).
In brackets after ≈: the same amount, converted by molar mass.

Tested on: Mycobacterium tuberculosis
Experiment: Antitubercular activity against Mycobacterium tuberculosis H37Rv after 2 days by mycobacteria growth indicator tube system
Format: functional
Conditions: 48 h

Structure (SMILES) | MIC [µg/mL]
c1ccc(CNCCNCc2ccccc2)cc1 | > 64
CC(CNCc1ccccc1)NCc1ccccc1 (stereo not drawn) | > 64
CC[C@@H](CO)NCCN[C@@H](CC)CO [ETHAMBUTOL] | 2 (≈ 9.79 µM)
